pEC50: −log10 of the molar value. Like-named read-outs stand apart in the source and are kept apart here.
How the values were obtained:
[1] = system: HCV genotype 1a (H77 strain) replicon in HUH-7 cells; test: HCV replicon luciferase reporter assay, genotype 1a; assay type: cell-based; details: Hepatitis C virus, Huh-7, 72 h, 3 days incubation, read-out: LE_1a (EC50, range)
Procedure, shortened: (§1)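 Replicon inhibition for both genotypes was measured as Renilla luciferase signal (EnduRen, 7.5 μM final, 2 h) after 3-day, 37° C exposure of replicon-bearing HUH-7 cells in 4% FCS DMEM, 0.5% DMSO. The 1b construct carries S1179I; the 1a H77 construct carries P1496L and S2204I. Twenty-point, 3-fold dilutions were fitted four-parametrically for EC50, and CC50 was taken from multiplexed Cell Titer-Blue.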

[2] = system: HCV genotype 1b (Con1) replicon in HUH-7 cells; test: HCV replicon luciferase reporter assay, genotype 1b; assay type: cell-based; details: Hepatitis C virus, Huh-7, 72 h, 3 days incubation, read-out: LE_1b (EC50, range)
Procedure, shortened: as §1

[3] = GETYPE1A, HCV genotype 1a replicon luciferase
[4] = GETYPE1B, HCV genotype 1b replicon luciferase
[5] = HCV genotype 1a replicon luciferase
[6] = HCV genotype 1b replicon luciferase
[7] = HCV genotype 1a replicon luciferase assay, range class
[8] = HCV genotype 1b replicon luciferase assay, range class

COc1cnc(O[C@@H]2C[C@H]3C(=O)N[C@]4(C(=O)NS(=O)(=O)C5CC5)C[C@H]4/C=C\CC[C@@H](C)C[C@@H](C)[C@H](NC(=O)OC(C)(C)C(F)(F)F)C(=O)N3C2)c2cc(F)ccc12 [Compound 4059]
pEC50 [1, 3]: > 8.26 | pEC50 [2, 4]: > 8.26

CCOc1cnc(O[C@@H]2C[C@H]3C(=O)N[C@]4(C(=O)NS(=O)(=O)C5(CF)CC5)C[C@H]4/C=C\CC[C@@H](C)C[C@@H](C)[C@H](NC(=O)OC(C)(C)C)C(=O)N3C2)c2ccc(OC)cc12 [Compound 4105, tert-butyl (2R,6S,7R,9R,13aS,14aR,16aS,Z)-2-(4-ethoxy-6-methoxyisoquinolin-1-yloxy)-14a-(1-(fluoromethyl)cyclopropylsulfonylcarbamoyl)-7,9-dimethyl-5,16-dioxo-1,2,3,5,6,7,8,9,10,11,13a,14,14a,15,16,16a-hexadecahydrocyclopropa[e]pyrrolo[1,2-a][1,4]diazacyclopentadecin-6-ylcarbamate]
pEC50 [1, 5]: > 8.26 | pEC50 [2, 6]: > 8.26

COc1nnc(O[C@@H]2C[C@H]3C(=O)N[C@]4(C(=O)NS(=O)(=O)C5(C)CC5)C[C@H]4/C=C\CC[C@@H](C)C[C@@H](C)[C@H](NC(=O)OC(C)(C)C)C(=O)N3C2)c2ccccc12 [Compound 5016, tert-butyl ((2R,6S,7R,9R,13aS,14aR,16aS,Z)-2-((4-methoxyphthalazin-1-yl)oxy)-7,9-dimethyl-14a-(((1-methylcyclopropyl)sulfonyl)carbamoyl)-5,16-dioxo-1,2,3,5,6,7,8,9,10,11,13a,14,14a,15,16,16a-hexadecahydrocyclopropa[e]pyrrolo[1,2-a][1,4]diazacyclopentadecin-6-yl)carbamate]
pEC50 [1, 5]: > 8.26 | pEC50 [2, 6]: > 8.26

COc1ccc2nc(C)c(O[C@@H]3C[C@H]4C(=O)N[C@]5(C(=O)NS(=O)(=O)C6(C)CC6)C[C@H]5/C=C\CC[C@@H](C)C[C@@H](C)[C@H](NC(=O)OC(C)(C)C)C(=O)N4C3)nc2c1 [Compound 4109, tert-butyl (2R,6S,7R,9R,13aS,14aR,16aS,Z)-2-(7-methoxy-3-methylquinoxalin-2-yloxy)-7,9-dimethyl-14a-(1-methylcyclopropylsulfonylcarbamoyl)-5,16-dioxo-1,2,3,5,6,7,8,9,10,11,13a,14,14a,15,16,16a-hexadecahydrocyclopropa[e]pyrrolo[1,2-a][1,4]diazacyclopentadecin-6-ylcarbamate]
pEC50 [1, 5]: > 8.26 | pEC50 [2, 6]: > 8.26

COc1ccc2c(O[C@@H]3C[C@H]4C(=O)N[C@]5(C(=O)NS(=O)(=O)C6(C)CC6)C[C@H]5/C=C\CC[C@@H](C)C[C@@H](C)[C@H](NC(=O)O[C@@H]5C[C@@H]6C[C@@H]6C5)C(=O)N4C3)nc(-c3ccc(F)cc3)cc2c1 [Compound 3087, (1R,3r,5S)-bicyclo[3.1.0]hexan-3-yl((2R,6S,7R,9R,13aS,14aR,16aS,Z)-2-((3-(4-fluorophenyl)-6-methoxyisoquinolin-1-yl)oxy)-7,9-dimethyl-14a-(((1-methylcyclopropyl)sulfonyl)carbamoyl)-5,16-dioxo-1,2,3,5,6,7,8,9,10,11,13a,14,14a,15,16,16a-hexadecahydrocyclopropa[e]pyrrolo[1,2-a][1,4]diazacyclopentadecin-6-yl)carbamate]
pEC50 [1, 7]: > 8.26 | pEC50 [2, 8]: > 8.26

CCOc1ccc2c(O[C@@H]3C[C@H]4C(=O)N[C@]5(C(=O)NS(=O)(=O)C6(C)CC6)C[C@H]5/C=C\CC[C@@H](C)C[C@@H](C)[C@H](NC(=O)OC(C)(C)C(F)(F)F)C(=O)N4C3)ncc(OC)c2c1 [Compound 3140, 1,1,1-trifluoro-2-methylpropan-2-yl((2R,6S,7R,9R,13aS,14aR,16aS,Z)-2-((6-ethoxy-4-methoxyisoquinolin-1-yl)oxy)-7,9-dimethyl-14a-(((1-methylcyclopropyl)sulfonyl)carbamoyl)-5,16-dioxo-1,2,3,5,6,7,8,9,10,11,13a,14,14a,15,16,16a-hexadecahydrocyclopropa[e]pyrrolo[1,2-a][1,4]diazacyclopentadecin-6-yl)carbamate]
pEC50 [1, 7]: > 8.26 | pEC50 [2, 8]: > 8.26

CC[C@@H]1C[C@H](C)CC/C=C\[C@@H]2C[C@@]2(C(=O)NS(=O)(=O)C2(C)CC2)NC(=O)[C@@H]2C[C@@H](Oc3ncc(OC)c4cc(N(C)C)ccc34)CN2C(=O)[C@H]1NC(=O)OC(C)(C)C(F)(F)F [Compound 3208, 1,1,1-trifluoro-2-methylpropan-2-yl((2R,6S,7R,9R,13aS,14aR,16aS,Z)-2-((6-(dimethylamino)-4-methoxyisoquinolin-1-yl)oxy)-7-ethyl-9-methyl-14a-(((1-methylcyclopropyl)sulfonyl)carbamoyl)-5,16-dioxo-1,2,3,5,6,7,8,9,10,11,13a,14,14a,15,16,16a-hexadecahydrocyclopropa[e]pyrrolo[1,2-a][1,4]diazacyclopentadecin-6-yl)carbamate]
pEC50 [1, 5]: 8.30 to 9.00 | pEC50 [2, 6]: 9.00 to 9.29

CC[C@@H]1C[C@H](C)CC/C=C\[C@@H]2C[C@@]2(C(=O)NS(=O)(=O)C2(C)CC2)NC(=O)[C@@H]2C[C@@H](Oc3ncc(N(CC)CC)c4cc(OC)ccc34)CN2C(=O)[C@H]1NC(=O)OC(C)(C)C(F)(F)F [Compound 4269]
pEC50 [1, 3]: 8.30 to 9.00 | pEC50 [2, 4]: 8.30 to 9.00

COc1ccc2c(O[C@@H]3C[C@H]4C(=O)N[C@]5(C(=O)NS(=O)(=O)C6(C)CC6)C[C@H]5/C=C\CC[C@@H](C)C[C@@H](C)[C@H](NC(=O)NC(C)(C)C)C(=O)N4C3)nc(-c3ccc(OC(C)C)nc3)cc2c1 [Compound 5231, (2R,6S,7R,9R,13aS,14aR,16aS,Z)-6-(3-(tert-butyl)ureido)-2-((3-(6-isopropoxypyridin-3-yl)-6-methoxyisoquinolin-1-yl)oxy)-7,9-dimethyl-N-((1-methylcyclopropyl)sulfonyl)-5,16-dioxo-1,2,3,5,6,7,8,9,10,11,13a,14,14a,15,16,16a-hexadecahydrocyclopropa[e]pyrrolo[1,2-a][1,4]diazacyclopentadecine-14a-carboxamide]
pEC50 [1, 5]: > 8.26 | pEC50 [2, 6]: > 8.26

C[C@H]1CC/C=C\[C@@H]2C[C@@]2(C(=O)NS(=O)(=O)C2(C)CC2)NC(=O)[C@@H]2C[C@@H](Oc3nccc4c5c(ccc34)N(C)CCO5)CN2C(=O)[C@@H](NC(=O)OC(C)(C)C)[C@H](C)C1 [Compound 5293, tert-butyl ((2R,6S,7R,9S,13aS,14aR,16aS,Z)-7,9-dimethyl-2-((4-methyl-3,4-dihydro-2H-[1,4]oxazino[2,3-f]isoquinolin-7-yl)oxy)-14a-(((1-methylcyclopropyl)sulfonyl)carbamoyl)-5,16-dioxo-1,2,3,5,6,7,8,9,10,11,13a,14,14a,15,16,16a-hexadecahydrocyclopropa[e]pyrrolo[1,2-a][1,4]diazacyclopentadecin-6-yl)carbamate]
pEC50 [1, 5]: 6.99 to 8.32 | pEC50 [2, 6]: > 8.26

COc1ccc2c(O[C@@H]3C[C@H]4C(=O)N[C@]5(C(=O)NS(=O)(=O)C6(C)CC6)C[C@H]5/C=C\CC[C@@H](C)C[C@@H](C)[C@H](NC(=O)OC(C)(C)C(F)(F)F)C(=O)N4C3)ncc(N3CCN(C)CC3)c2c1 [Compound 4013]
pEC50 [1, 3]: > 8.26 | pEC50 [2, 4]: > 8.26

Reference: patent US9499550B2 (BRISTOL-MYERS SQUIBB COMPANY, priority 2012, dated 2016)
